Measurements from patent US20250041298A1, “CDK4 INHIBITOR FOR THE TREATMENT OF CANCER” (Pfizer Inc., priority 2021, published 2025).
“And” between values parts separate entries of the source, which are not always exact repeats. Equal entries are not always repeated.

Key:
[1] = tested on: advanced or metastatic solid tumors; assay: Phase 1/1b clinical trial: tumor response (best overall response, RECIST 1.1); format: in vivo, human
Description: The present therapy may result in a complete response (CR), partial response (PR), progressive disease (PD), or stable disease (SD) in patients. Bioimaging can be used to evaluate the level of response to the therapy. Cytology and histology may also be used as needed (e.g., to locate any residual lesions). In some embodiments, the various levels of response can be evaluated in accordance with Table 1 below.
• For Part 1: participant must have evaluable lesion (including skin or bone lesion only). • For Part 2B and Part 2C: participants must have measurable disease as defined per RECIST (Response Evaluation Criteria in Solid Tumors) version 1.1 (Eisenhauer et al., European Journal of Cancer, 2009, 45 (2): 228-47). Tumor lesions previously irradiated or subjected to locoregional therapy will only be deemed measurable if progression at the treated site after completion of therapy is clearly documented.

[2] = tested on: HR+, HER2+ BT474 breast cancer spheroids; assay: Multicellular tumor spheroid growth inhibition (SGI), BT474; format: cell-based, human
Protocol: The purpose of this example was to evaluate the combination effect of PF-07220060 and endocrine therapy in multicellular tumor spheroid growth inhibition (SGI). To model the characteristics and cellular behavior of human tumors, the activity of PF-07220060 was evaluated in three dimensional MCTS models of HR+ breast cancer and AR+ prostate cancer following PF-07220060 treatment as a single agent and in combination with fulvestrant • 1) in HR+, HER2-T47D breast cancer spheroids. • 2) in HR+, HER2+BT474 breast cancer spheroids, • 3) in BT474 spheroids, and • 4) in AR+ prostate carcinoma cell line (LNCaP) prostate cancer spheroids. Spheroids were treated with increasing concentrations of 100, 300, or 1000 nM PF-07220060 and compared to palbociclib at the clinically relevant concentration of 30 nM. Single agent PF-07220060 inhibited spheroid growth in a dose-dependent manner, with highest efficacy (86% SGI over the duration of treatment with 1000 nM) shown in the T47D BC spheroid model (Table 1). Combining 100 nM PF-07220060 with 1 nM fulvestrant in T47D cells increased SGI to 96% compared to either single agent alone (57 to 67% SGI with 100 nM PF-07220060 or 79% SGI with fulvestrant) (Table 1). BT474 spheroids were relatively less sensitive to PF-07220060 resulting in 52% SGI at 1000 nM.

[3] = Part 1D food effect cohort (n = 6)
[4] = Total, all cohorts (27 patients)
[5] = Total, all cohorts (35 patients)
[6] = confirmed best overall response, Part 1D food effect cohort (n = 6)
[7] = confirmed best overall response, Total Part 1A (single agent), 1B, 1C, 1B + 1C, by label
[8] = confirmed best overall response, Total, all cohorts (n = 70)

CC(C)n1c(C(C)(C)O)nc2c(F)cc(-c3nc(N[C@@H]4CCOC[C@H]4O)ncc3Cl)cc21 [PF-07220060, 1,5-anhydro-3-({5-chloro-4-[4-fluoro-2-(2-hydroxypropan-2-yl)-1-(propan-2-yl)-1H-benzimidazol-6-yl]pyrimidin-2-yl}amino)-2,3-dideoxy-D-threo-pentitol]
Objective Response (CR + PR) for Patients without Breast Cancer, % ([1]; Part 1D food effect cohort (5 patients)): (20.0) %
Disease Control (CR + PR + SD + Non-CR/Non-PD), % [1, 3]: (50.0) %
Objective Response (CR + PR), % [1, 3]: (16.7) %
Clinical Benefit Response, % ([1]; Patients with Breast Cancer (with Measurable Disease at Baseline), Total Part 1A (single agent), 1B, 1C, 1B + 1C, by label): (40.0) %
Clinical Benefit Response, % ([1]; Patients with Breast Cancer (with Measurable Disease at Baseline), Total, all cohorts (27 patients)): (48.1) %
Clinical Benefit Response, % ([1]; Patients with Breast Cancer, Total Part 1A (single agent), 1B, 1C, 1B + 1C, by label): (25.0) %
Clinical Benefit Response, % ([1]; Patients with Breast Cancer, Total, all cohorts (35 patients)): (40.0) %
Objective Response (CR + PR) for Patients with Breast Cancer (with Measurable Disease at Baseline), % [1, 4]: (22.2) %
Objective Response (CR + PR) for Patients with prior CDK4/6 inhibitor (with Measurable Disease at Baseline), % [1, 4]: (22.2) %
Objective Response (CR + PR) for Patients with Breast Cancer, % [1, 5]: (17.1) %
Objective Response (CR + PR) for Patients without Breast Cancer, % [1, 5]: (2.9) %
Disease Control (CR + PR + SD + Non-CR/Non-PD), % ([1]; Total, all cohorts (n = 70)): (65.7) %
Objective Response (CR + PR), % ([1]; Total, all cohorts (n = 70)): (10.0) %
Disease Control (CR + PR + SD + Non-CR/Non-PD), % ([1]; Total, all cohorts (n = 70), listed as PF-06873600): 65.7%
Clinical Benefit Response, % ([1]; all evaluable patients, Part 1D food effect cohort (n = 6)): (33.3) %
Clinical Benefit Response, % ([1]; all evaluable patients, Total Part 1A (single agent), 1B, 1C, 1B + 1C, by label): (26.3) %
Clinical Benefit Response, % ([1]; all evaluable patients, Total, all cohorts (n = 70)): (34.3) %
Non-CR/Non-PD, % [1, 6]: (16.7) %
Not evaluable (NE), % [1, 6]: (16.7) %
Partial response (PR), % [1, 6]: (16.7) %
Progressive disease (PD), % [1, 6]: (33.3) %
Stable disease (SD), % [1, 6]: (16.7) %
Non-CR/Non-PD, % [1, 7]: (10.5) %
Not evaluable (NE), % [1, 7]: (23.7) %
Progressive disease (PD), % [1, 7]: (15.8) %
Stable disease (SD), % [1, 7]: (47.4) %
Complete response (CR), % [1, 8]: (1.4) %
Non-CR/Non-PD, % [1, 8]: (11.4) %
Not evaluable (NE), % [1, 8]: (14.3) %
Partial response (PR), % [1, 8]: (8.6) %
Progressive disease (PD), % [1, 8]: (18.6) %
Stable disease (SD), % [1, 8]: (44.3) %
SGI ([2]; 100 nM single agent): 9%
SGI ([2]; 300 nM single agent): 16% and 26% and 20%
SGI ([2]; 1000 nM single agent): 52%
